Experimental data: patent US20230272392A1, “METHODS OF TFEB ACTIVATION AND LYSOSOMAL BIOGENESIS AND COMPOSITIONS THEREFOR” (Casma Therapeutics, Inc., priority 2020, published 2023)

Tests used:
LC3 [1] = test: LC3 lipidation (LC3-I to LC3-II conversion), Western blot and cell images; type: cell-based; conditions: for LC3 lipidation (conversion of LC3 "I" form to "II" form): wild type (WT) and autophagy-deficient cells, FIGS. 1, 2, 3
Source text: (§1) For preparation of total cell lysates, cells were lysed in RIPA buffer (#9806, Cell Signaling Technology) supplemented with sodium dodecyl sulfate to 1% final concentration (SDS, Boston BioProducts) and protease inhibitor tablets (Complete EDTA-free, Roche). Lysates were homogenized by sequential passaging through Qiashredder columns (Qiagen), and protein levels were quantified by Lowry DC protein assay (Bio-Rad). Proteins were denatured in 6×Laemmli SDS loading buffer (Boston BioProducts) at 100° C. for 5 minutes.
(§2) Equivalent amounts of total proteins were separated on Tris-Glycine TGx SDS-PAGE gels (Bio-Rad) for Western blotting. Proteins were transferred to nitrocellulose using standard methods and membranes were blocked in 5% non-fat dry milk (Cell Signaling Technology) in TBS with 0.2% Tween-20 (Boston BioProducts). Primary antibodies were diluted in 5% bovine serum albumin (BSA, Cell Signaling Technology) in TBS with 0.2% Tween-20 and were incubated with membranes at 4° C. overnight. HRP-conjugated secondary antibodies were diluted in blocking solution (1:20,000, ThermoFisher) and incubated with membranes at room temperature for 1 hour. Western blots were developed using West PicoPLUS Super Signal ECL reagents (Pierce) and film (GEHealthcare).

LC3 [2] = test: LC3 puncta co-localized with LAMP1 in primary bone marrow-derived macrophages, wild-type vs ATG16L1 K490A knock-in; type: cell-based, mouse; conditions: FIG. 12
Method: For LC3 and LAMP1 staining in primary BMDMs, cells were plated on 18 mm coverslips. The next day, cells were treated as indicated and cells were fixed in ice cold methanol as described above. Cells were then blocked in PBS+5% BSA for 1 hour before addition of primary antibodies (anti-LC3A/B, CST #4108, 1:100; anti-LAMP1, BD #555798, 1:100) and diluted in blocking buffer overnight at 4° C. Cells were then washed and incubated with fluorescent secondary antibodies in blocking buffer for 1 hour at room temperature. Cells were washed in PBS incubated with DAPI and mounted on glass slides using Prolong anti-fade reagent (Life Technologies).
The K490A point mutation was introduced into C57/BL6 mice via direct zygote injection of CRISPR/Cas9 reagents. Briefly, a single stranded guide sequence was designed and synthesized along with a tracrRNA from Dhamacon. A repair donor single stranded DNA sequence was designed to introduce the K490A point mutation and mutate the PAM sequence to stop re-targeting of the Cas9 complex to already edited DNA. These reagents, along with recombinant Cas9, were injected into mouse zygotes. Pups born from these injections were genotyped via Transnetyx and heterozogous founders were bred with wild-type mice to obtain pure heterozygote animals. Further breeding yielded mice homozygous for the K490A mutation. […]

TFEB [3] = test: TFEB activation (Western blot / nuclear accumulation) in cell lines; type: cell-based; conditions: for TFEB activation under co-treatment with BafA1: FIG. 16
Source text: as §1, §2
(§3) For high content image acquisition, cells were plated in 96-well glass bottom, black wall plates (Greiner, #655892) or 384-well polystyrene, black-wall plates (Greiner, #781091) and grown overnight to 70% confluency. Treatments were performed as indicated. Cells were fixed for 10 minutes in either −20° C. methanol or 4% paraformaldehyde (Electron Microscopy Sciences). Cells were blocked and permeabilized in a solution containing 1:1 Odyssey blocking buffer (LiCor)/PBS (Invitrogen) with 0.1% Triton X-100 (Sigma) and 1% normal goat serum (Invitrogen) for 1 hour at room temperature. Primary antibodies were added overnight at 4° C. in blocking buffer described above. After washing plates with PBS using an EL-406 plate washer (BioTek), secondary Alexa-conjugated antibodies (Life Technologies) were diluted 1:1,000 in blocking solution and applied for 1 hour at room temperature. Cells were then washed again in PBS as described and imaged using an INCELL 6500 high-content imager (GE Healthcare). Images were analyzed using the GE InCarta software.

TFEB [4] = test: TFEB activation in ATG16L1 KO mouse macrophages reconstituted with ATG16L1 WD40 point mutants; type: cell-based; conditions: immortalized ATG16L1 KO mouse macrophages; FIG. 21
Method: For endogenous TFEB staining in mouse macrophages, cells were fixed in 3.7% formaldehyde for 15 minutes at room temperature, washed in PBS and permeabilized in 0.2% triton/PBS for 5 minutes. Cells were then processed as above for primary (anti-TFEB, Bethyl Laboratories, #A303-673A, 1:200) and secondary antibodies. Images were acquired using a Confocal Zeiss LSM 780 microscope (Carl Zeiss Ltd) equipped with a 40×oil immersion 1.40 numerical aperture (NA) objective using Zen software (Carl Zeiss Ltd). Analysis was performed using Image J. For nuclear cytosol quantification, the ratio of fluorescent intensity of TFEB within the DAPI was mask versus the cytosol of 30 cells across 2 independent experiments were measured.

GPNMB = GPNMB protein levels (TFEB target gene) upon chronic treatment, Western blot; type: cell-based; conditions: FNIP1/2 DKO cells reconstituted with FNIP1; FIG. 44D
Source text: as §2, with “For preparation of total cell lysates, cells were lysed in RIPA buffer (#9806, Cell Signaling Technology) supplemented with sodium dodecyl sulfate to 1% final concentration (SDS, Boston BioProducts) and protease inhibitor tablets (Complete EDTA-free, Roche). Lysates were homogenized by sequential passaging through Qiashredder columns (Qiagen), and protein levels were quantified by Lowry DC protein assay (Bio-Rad). Proteins were denatured in 6×Laemmli SDS loading buffer (Boston BioProducts) at 100° C. for 5 minutes. Equivalent” for “Equivalent”

[5] = system: U2OS cells expressing mKeima, FRB-p62, and FKBP-FIS1; test: Mitophagy efficiency, Keima fluorescence shift assay in U2OS cells; type: cell-based; conditions: dimerizer-induced mitophagy; FIG. 49
TFE3 and FLCN = TFE3 and FLCN subcellular localization upon dimerizer-induced mitophagy in U2OS cells; type: cell-based; conditions: 25 nM, 3 hours; control KO, RB1CC1 KO, GABARAP triple KO U2OS cells; FIG. 50
Method: as §3

Structure (SMILES) | LC3 lipidation (conversion of LC3 "I" form to "II" form) (LC3 [1]) | LC3 puncta formation co-localized with LAMP1, wild-type vs ATG16L1^K490A cells (LC3 [2]) | TFEB activation under co-treatment with BafA1 (TFEB [3]) | TFEB activation in macrophages with ATG16L1-F467A or ATG16L1-K490A (TFEB [4]) | further results
COc1ccc(-c2ccc3c(N4CCOC[C@@H]4C)nc(N4CCOC[C@@H]4C)nc3n2)cc1CO [AZD8055] | able to regulate LC3 lipidation in WT but not autophagy-deficient cells | sensitivity to the ATG16L1^K490A mutation was not observed | did not prevent TFEB activation | activated TFEB irrespective of ATG16L1 status | LC3 lipidation: dependence on VPS34 inhibition and Bafilomycin A1 co-treatment (LC3 [1]; FIG. 4): induced conversion of LC3 in a manner sensitive to VPS34 inhibition and was potentiated with the vATPase inhibitor Bafilomycin A1 (BafA1); TFEB activation (with GPNMB readout) (TFEB [3]; FIG. 44D): robust TFEB activation; TFEB nuclear accumulation / activation with SopF expression (TFEB [3]; SopF expression vs SopF negative controls, FIG. 15): did not impact TFEB activation; GPNMB protein levels (GPNMB): largely suppressed
CO/C1=C\C(C)=C\[C@@H](C)[C@@H](O)[C@@H](C)C/C(C)=C/C=C/[C@H](OC)[C@@H]([C@@H](C)[C@@H](O)[C@H](C)[C@@]2(O)C[C@@H](O)[C@H](C)[C@@H](C(C)C)O2)OC1=O [BafA1, Bafilomycin A1] |  |  |  |  | Keima signal (mitophagy) under co-treatment [5]: blocked the Keima signal
CO[C@H]1[C@@H](O)[C@H](C)C[C@H](C)/C=C/C=C/C=C(\C)[C@@H](c2c[nH]c3c(C)cccc23)C[C@@H]2CC[C@@H](C)[C@@](O)(O2)C(=O)C(=O)N2CCCC[C@H]2C(=O)O[C@H]([C@H](C)C[C@@H]2CC[C@@H](O)[C@H](OC)C2)C[C@H](O)[C@H](C)/C=C(\C)[C@H]1O [AP21967] |  |  |  |  | TFE3 nuclear localization and FLCN punctate structures (TFE3 and FLCN): seen in CTRL and RBICC1_KO (autophagy-deficient) cells but not in GABARAP_TKO cells
Cc1ccc(S(=O)(=O)Nc2ccccc2N2CCCCC2)s1 [MK6-83] | rapid conversion of LC3 from its cytoplasmic “I” form to the lipidated, punctate “II” form in both wild type (WT) and autophagy-deficient cells |  | prevented |  | 
CC1CC(C)(C)N(C(=O)CN2C(=O)c3ccccc3C2=O)c2ccccc21 (stereo not drawn) [ML-SA1] | rapid conversion of LC3 from its cytoplasmic “I” form to the lipidated, punctate “II” form in both wild type (WT) and autophagy-deficient cells | did not occur in ATG16L1^K490A cells |  | did not exhibit TFEB activation | 
